Experimental data from ChEMBL document CHEMBL1126229, “Enol lactone derivatives as inhibitors of human neutrophil elastase and trypsin-like proteases” (Bioorg Med Chem Lett, 1992).

Tests used:
[1] = biological target: Chymotrypsinogen A (Bos taurus) (UniProt P00766); experiment: Rate constant of acylation on alpha-chymotrypsin was determined at 15 percent and at 78 minutes for maximum inhibition and no enzyme activity was recovered over the 2 h-time
Prothrombin [2] = biological target: T1, Prothrombin (Homo sapiens, UniProt P00734); experiment: Specificity constant on thrombin was determined at 0 percent and at 93 minutes for maximum inhibition and no enzyme activity was recovered over the 2 h-time
Plasminogen [3] = biological target: T2, Plasminogen (Homo sapiens, UniProt P00747); experiment: Specificity constant on plasmin was determined at 0 percent and at 95 minutes for maximum inhibition and no enzyme activity was recovered over the 2 h-time
Plasminogen [4] = biological target: T2, Plasminogen; experiment: Rate constant of acylation on plasmin was determined at 0 percent and at 95 minutes for maximum inhibition and no enzyme activity was recovered over the 2 h-time
[5] = biological target: T3, Urokinase-type plasminogen activator (Homo sapiens, UniProt P00749); experiment: Rate constant of acylation on Urokinase-type plasminogen activator […] was determined at 0 percent and at 98 minutes for maximum inhibition and no enzyme activity was recovered over the 2 h-time
Plasminogen [6] = biological target: T2, Plasminogen; experiment: Binding constant on plasmin was determined at 0 percent and at 95 minutes for maximum inhibition and no enzyme activity was recovered over the 2 h-time
Prothrombin [7] = biological target: T1, Prothrombin; experiment: Rate constant of acylation on thrombin was determined at 0 percent and at 93 minutes for maximum inhibition and no enzyme activity was recovered over the 2 h-time
Prothrombin [8] = biological target: T1, Prothrombin; experiment: Binding constant on thrombin was determined at 0 percent and at 93 minutes for maximum inhibition and no enzyme activity was recovered over the 2 h-time
[9] = biological target: Chymotrypsinogen A (Bos taurus) (UniProt P00766); experiment: Specificity constant on alpha-chymotrypsin was determined at 15 percent and at 78 minutes for maximum inhibition and no enzyme activity was recovered over the 2 h-time
[10] = biological target: Chymotrypsinogen A (Bos taurus) (UniProt P00766); experiment: Binding constant on alpha-chymotrypsin was determined at 15 percent and at 78 minutes for maximum inhibition and no enzyme activity was recovered over the 2 h-time
[11] = biological target: T3, Urokinase-type plasminogen activator; experiment: Specificity constant on Urokinase-type plasminogen activator was determined at 0 percent and at 98 minutes for maximum inhibition and no enzyme activity was recovered over the 2 h-time
[12] = biological target: T3, Urokinase-type plasminogen activator; experiment: Binding constant on Urokinase-type plasminogen activator was determined at 0 percent and at 98 minutes for maximum inhibition and no enzyme activity was recovered over the 2 h-time
[13] = biological target: T4, Chymotrypsin-like elastase family member 2A (Sus scrofa) (UniProt P08419); experiment: Specificity constant on porcine pancreatic elastase was determined at 10 percent and at 73 minutes for maximum inhibition and no enzyme activity was recovered over the 2 h-time
T4 sequence (whole entry): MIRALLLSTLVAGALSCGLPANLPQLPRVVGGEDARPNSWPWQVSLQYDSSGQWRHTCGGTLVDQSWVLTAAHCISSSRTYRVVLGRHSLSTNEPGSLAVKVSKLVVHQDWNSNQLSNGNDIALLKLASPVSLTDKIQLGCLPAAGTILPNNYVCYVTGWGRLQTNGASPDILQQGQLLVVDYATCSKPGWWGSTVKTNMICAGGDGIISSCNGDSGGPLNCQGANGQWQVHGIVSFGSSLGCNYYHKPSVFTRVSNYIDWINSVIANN

[14] = biological target: T5, Neutrophil elastase (Homo sapiens) (UniProt P08246); experiment: Binding constant on human neutrophil elastase was determined at 30 percent and at 10 minutes for maximum inhibition with 0 minutes persistence of inhibition
T5 sequence (whole entry): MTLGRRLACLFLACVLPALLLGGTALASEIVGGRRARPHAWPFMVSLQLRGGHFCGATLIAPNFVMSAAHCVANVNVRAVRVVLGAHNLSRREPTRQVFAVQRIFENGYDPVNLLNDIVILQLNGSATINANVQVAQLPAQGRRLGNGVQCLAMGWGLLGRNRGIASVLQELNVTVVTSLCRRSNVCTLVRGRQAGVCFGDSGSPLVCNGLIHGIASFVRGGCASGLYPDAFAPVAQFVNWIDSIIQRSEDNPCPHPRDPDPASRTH

[15] = biological target: T5, Neutrophil elastase (Homo sapiens); experiment: Rate constant of acylation on human neutrophil elastase was determined at 30 percent and at 10 minutes for maximum inhibition with 0 minutes persistence of inhibition
[16] = biological target: T4, Chymotrypsin-like elastase family member 2A (Sus scrofa); experiment: Rate constant of acylation on porcine pancreatic elastase was determined at 10 percent and at 73 minutes for maximum inhibition and no enzyme activity was recovered over the 2 h-time
[17] = biological target: T5, Neutrophil elastase (Homo sapiens); experiment: Specificity constant on human neutrophil elastase was determined at 30 percent and at 10 minutes for maximum inhibition with 0 minutes persistence of inhibition
[18] = biological target: T4, Chymotrypsin-like elastase family member 2A (Sus scrofa); experiment: Binding constant on porcine pancreatic elastase was determined at 10 percent and at 73 minutes for maximum inhibition and no enzyme activity was recovered over the 2 h-time
[19] = biological target: T4, Chymotrypsin-like elastase family member 2A (Sus scrofa); experiment: Binding constant on porcine pancreatic elastase was determined at 10 percent and at 78 minutes for maximum inhibition and no enzyme activity was recovered over the 2 h-time
[20] = biological target: T5, Neutrophil elastase (Homo sapiens); experiment: Binding constant on human neutrophil elastase was determined at 30 percent and at 35 minutes for maximum inhibition with 0 minutes persistence of inhibition
[21] = biological target: T4, Chymotrypsin-like elastase family member 2A (Sus scrofa); experiment: Rate constant of acylation on porcine pancreatic elastase was determined at 10 percent and at 78 minutes for maximum inhibition and no enzyme activity was recovered over the 2 h-time
[22] = biological target: T5, Neutrophil elastase (Homo sapiens); experiment: Specificity constant on human neutrophil elastase was determined at 30 percent and at 35 minutes for maximum inhibition with 0 minutes persistence of inhibition
[23] = biological target: T5, Neutrophil elastase (Homo sapiens); experiment: Rate constant of acylation on human neutrophil elastase was determined at 30 percent and at 35 minutes for maximum inhibition with 0 minutes persistence of inhibition
[24] = biological target: T4, Chymotrypsin-like elastase family member 2A (Sus scrofa); experiment: Specificity constant on porcine pancreatic elastase was determined at 10 percent and at 78 minutes for maximum inhibition and no enzyme activity was recovered over the 2 h-time
Plasminogen [25] = biological target: T2, Plasminogen
Prothrombin [26] = biological target: T1, Prothrombin
[27] = biological target: T3, Urokinase-type plasminogen activator
Description: Specificity constant on Urokinase-type plasminogen activator was determined at 0 percent and at 91 minutes for maximum inhibition and no enzyme activity was recovered over the 2 h-time

Plasminogen [28] = biological target: T2, Plasminogen; remark: listed apart in the source
Description: Binding constant on plasmin was determined at 30 percent and at 82 minutes for maximum inhibition and no enzyme activity was recovered over the 2 h-time

Prothrombin [29] = biological target: T1, Prothrombin; remark: listed apart in the source
[30] = biological target: T3, Urokinase-type plasminogen activator; remark: listed apart in the source
Plasminogen [31] = biological target: T2, Plasminogen; remark: listed apart in the source
[32] = biological target: T3, Urokinase-type plasminogen activator; remark: listed apart in the source
[33] = biological target: T3, Urokinase-type plasminogen activator; experiment: Rate constant of deacylation for Urokinase-type plasminogen activator
Prothrombin [34] = biological target: T1, Prothrombin; experiment: Rate constant of deacylation for thrombin
Prothrombin [35] = biological target: T1, Prothrombin; remark: listed apart in the source
Plasminogen [36] = biological target: T2, Plasminogen; experiment: Rate constant of deacylation for plasmin; Fast and could not be measured
Prothrombin [37] = biological target: T1, Prothrombin; remark: listed apart in the source
Plasminogen [38] = biological target: T2, Plasminogen; remark: listed apart in the source
[39] = biological target: Tissue-type plasminogen activator (Homo sapiens) (UniProt P00750)
Plasminogen [40] = biological target: T2, Plasminogen; experiment: Binding constant on plasmin was determined at 0 percent and at 98 minutes for maximum inhibition and no enzyme activity was recovered over the 2 h-time
[41] = biological target: Tissue-type plasminogen activator (Homo sapiens) (UniProt P00750); experiment: Binding constant on Tissue type plasminogen activator was determined at 15 percent and at 90 minutes for maximum inhibition and no enzyme activity was recovered over the 2 h-time
Serine protease 1 [42] = biological target: T6, Serine protease 1 (Homo sapiens, UniProt P07477); experiment: Binding constant on trypsin was determined at 0 percent and at 99 minutes for maximum inhibition and no enzyme activity was recovered over the 2 h-time
Prothrombin [43] = biological target: T1, Prothrombin; experiment: Binding constant on thrombin was determined at 15 percent and at 98 minutes for maximum inhibition and no enzyme activity was recovered over the 2 h-time
Serine protease 1 [44] = biological target: T6, Serine protease 1; experiment: Specificity constant on trypsin was determined at 0 percent and at 99 minutes for maximum inhibition and no enzyme activity was recovered over the 2 h-time
Serine protease 1 [45] = biological target: T6, Serine protease 1; experiment: Rate constant of acylation on trypsin was determined at 0 percent and at 99 minutes for maximum inhibition and no enzyme activity was recovered over the 2 h-time
Plasminogen [46] = biological target: T2, Plasminogen; remark: listed apart in the source
Prothrombin [47] = biological target: T1, Prothrombin; remark: listed apart in the source

T6 sequence (P07477 whole entry): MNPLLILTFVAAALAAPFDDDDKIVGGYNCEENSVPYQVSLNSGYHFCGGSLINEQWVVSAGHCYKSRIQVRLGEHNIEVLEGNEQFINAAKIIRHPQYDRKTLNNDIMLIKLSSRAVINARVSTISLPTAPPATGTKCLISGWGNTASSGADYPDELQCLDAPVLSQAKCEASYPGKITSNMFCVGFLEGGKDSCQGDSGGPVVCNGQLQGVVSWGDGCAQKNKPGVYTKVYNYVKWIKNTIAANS
T2 sequence (P00747 97-580 limits assumed): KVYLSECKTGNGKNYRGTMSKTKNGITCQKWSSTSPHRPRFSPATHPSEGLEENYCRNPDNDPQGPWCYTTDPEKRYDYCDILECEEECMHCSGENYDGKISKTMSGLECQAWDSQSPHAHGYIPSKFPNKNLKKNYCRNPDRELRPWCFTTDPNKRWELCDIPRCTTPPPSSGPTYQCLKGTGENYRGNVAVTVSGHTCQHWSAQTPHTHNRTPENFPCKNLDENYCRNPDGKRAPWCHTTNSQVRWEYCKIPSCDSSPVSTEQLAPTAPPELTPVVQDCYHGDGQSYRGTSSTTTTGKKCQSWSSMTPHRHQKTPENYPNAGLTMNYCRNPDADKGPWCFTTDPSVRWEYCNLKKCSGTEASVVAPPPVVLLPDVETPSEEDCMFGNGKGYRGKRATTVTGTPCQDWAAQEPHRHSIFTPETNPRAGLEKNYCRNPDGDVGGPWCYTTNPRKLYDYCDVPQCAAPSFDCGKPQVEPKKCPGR
T2 sequence (P00747 581-810 limits assumed): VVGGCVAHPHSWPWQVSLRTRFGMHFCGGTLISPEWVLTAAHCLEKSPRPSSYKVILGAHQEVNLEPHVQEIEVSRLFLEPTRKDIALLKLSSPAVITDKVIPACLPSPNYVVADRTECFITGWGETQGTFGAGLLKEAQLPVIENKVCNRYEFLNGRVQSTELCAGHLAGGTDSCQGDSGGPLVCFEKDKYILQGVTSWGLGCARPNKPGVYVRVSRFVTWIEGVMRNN
Tissue-type plasminogen activator (Homo sapiens), sequence (P00750 36-562 limits assumed): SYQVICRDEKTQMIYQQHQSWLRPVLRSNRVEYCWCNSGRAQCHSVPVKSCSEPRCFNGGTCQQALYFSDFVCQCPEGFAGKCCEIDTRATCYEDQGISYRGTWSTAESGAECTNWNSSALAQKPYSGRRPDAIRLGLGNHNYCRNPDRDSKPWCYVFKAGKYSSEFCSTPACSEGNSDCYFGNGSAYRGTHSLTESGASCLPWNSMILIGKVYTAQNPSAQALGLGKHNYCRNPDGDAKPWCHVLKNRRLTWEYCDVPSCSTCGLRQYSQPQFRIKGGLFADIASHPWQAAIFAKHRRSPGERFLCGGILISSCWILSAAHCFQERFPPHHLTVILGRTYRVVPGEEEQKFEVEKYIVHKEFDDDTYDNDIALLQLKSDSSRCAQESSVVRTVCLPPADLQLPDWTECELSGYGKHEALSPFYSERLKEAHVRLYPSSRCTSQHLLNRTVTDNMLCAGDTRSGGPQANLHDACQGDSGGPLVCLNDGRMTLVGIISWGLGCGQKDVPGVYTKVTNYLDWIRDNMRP

N=C(N)Nc1ccc(C2CC/C(=C\I)OC2=O)cc1 (stereo not given)
ka [1]: 7.22 min⁻¹
ka/Ki (Prothrombin [2]): 14 µM⁻¹ min⁻¹
ka/Ki (Plasminogen [3]): 453 µM⁻¹ min⁻¹
ka (Plasminogen [4]): 13.6 min⁻¹
ka [5]: 18.6 min⁻¹
Ks/i (Plasminogen [6]): 0.03 µM
ka (Prothrombin [7]): 12.9 min⁻¹
Ks/i (Prothrombin [8]): 0.93 µM
ka/Ki [9]: 3 µM⁻¹ min⁻¹
Ks/i [10]: 2.4 µM
ka/Ki [11]: 117 µM⁻¹ min⁻¹
Ks/i [12]: 0.16 µM

C=C1CC(C)CC(=O)O1 (stereo not given)
ka/Ki [13]: 0.01 µM⁻¹ min⁻¹
Ks/i [14]: 22.7 µM
ka [15]: 0.6 min⁻¹
ka [16]: 4.47 min⁻¹
ka/Ki [17]: 0.03 µM⁻¹ min⁻¹
Ks/i [18]: 393 µM

CC1CC(=O)O/C(=C/Br)C1 (stereo not given)
Ks/i [19]: 216 µM
Ks/i [20]: 22.6 µM
ka [21]: 0.33 min⁻¹
ka/Ki [22]: 0.02 µM⁻¹ min⁻¹
ka [23]: 0.48 min⁻¹
ka/Ki [24]: 0.001 µM⁻¹ min⁻¹

C=C1CCC(c2ccc(CNC(=N)N)cc2)C(=O)O1 (stereo not given)
ka/Ki (Plasminogen [25]): 0.12 µM⁻¹ min⁻¹
ka/Ki (Prothrombin [26]): 0.15 µM⁻¹ min⁻¹
ka/Ki [27]: 28 µM⁻¹ min⁻¹
Ks/i (Plasminogen [28]): 466 µM
ka (Prothrombin [29]): 5.58 min⁻¹
Ks/i [30]: 0.35 µM
ka (Plasminogen [31]): 57 min⁻¹
ka [32]: 9.8 min⁻¹
Kd [33]: 0.044 min⁻¹
Kd (Prothrombin [34]): 0.006 min⁻¹
Ks/i (Prothrombin [35]): 37.9 µM
Kd (Plasminogen [36]): Not measurable

N=C(N)NCc1ccc(C2CC/C(=C\I)OC2=O)cc1 (stereo not given)
ka (Prothrombin [37]): 27.2 min⁻¹
ka (Plasminogen [38]): 10.2 min⁻¹
ka [39]: Not measurable
Ks/i (Plasminogen [40]): 1.19 µM
ka/Ki [27]: 756 µM⁻¹ min⁻¹
Ks/i [41]: 0.12 µM
Ks/i (Serine protease 1 [42]): 0.08 µM
ka [32]: 7.56 min⁻¹
Ks/i (Prothrombin [43]): 14.8 µM
Kd (Prothrombin [34]): 0.013 min⁻¹
ka/Ki (Serine protease 1 [44]): 230 µM⁻¹ min⁻¹
ka (Serine protease 1 [45]): 18.4 min⁻¹
ka/Ki (Plasminogen [46]): 9 µM⁻¹ min⁻¹
ka/Ki (Prothrombin [47]): 2 µM⁻¹ min⁻¹
